In patent US20250195482A1, “METHOD AND COMPOSITION FOR IMPROVING HEALTH OF HAIR FOLLICLES, SCALP OR HAIR OF MAMMALS” (NANJING NUTRABUILDING BIO-TECH CO., LTD., priority 2022, published 2025):

Tests used:
Type in all cases: cell-based
M. globosa = test: Growth inhibition of M. globosa (optical density); details: 1000 μM DHB, 600 nm, 48 h shaking at 30° C., mDixon medium; control 4.1
Protocol: (§1) Growth inhibition of M. globosa, M. restricta, Propionibacterium acnes, Staphylococcus aureus and Staphylococcus epidermidis was tested using 50-ml tubes with 10 ml of mDixon medium. Cultures were inoculated to an optical density (OD) of 0.2, the above microorganisms were loaded into each culture dish, and challenged with test material (control and DHB with different concentrations: 0.001 μM, 0.01 μM, 0.1 μM, 1 μm, 10 μM, 100 μM and 1000 μM). After 48 h of shaking at 30° C., the OD was measured by spectrophotometer and recorded.

[1] = system: Staphylococcus epidermidis; test: Growth inhibition of Staphylococcus epidermidis (optical density); details: 1000 μM DHB, 530 nm, 48 h shaking at 30° C.; control 1.8
Protocol: as §1

Propionibacterium acnes = test: Growth inhibition of Propionibacterium acnes (optical density); details: 1000 μM DHB, 530 nm, 48 h shaking at 30° C.; control 2.6
Protocol: as §1

M. restricta = test: Growth inhibition of M. restricta (optical density); details: 1000 μM DHB, 600 nm, 48 h shaking at 30° C., mDixon medium; control 6.5
Protocol: as §1

Staphylococcus aureus = test: Growth inhibition of Staphylococcus aureus (optical density); details: 1000 μM DHB, 530 nm, 48 h shaking at 30° C.; control 2.1
Protocol: as §1

Compound: COc1ccc2c(c1OC)CN1CCc3cc4c(cc3C1=C2)OCO4 [DHB, Dihydroberberine]
- optical density of M. globosa (M. globosa): 0.2
- optical density of Staphylococcus epidermidis [1]: 0.3
- optical density of Propionibacterium acnes (Propionibacterium acnes): 0.9
- optical density of M. restricta (M. restricta): 1.1
- optical density of Staphylococcus aureus (Staphylococcus aureus): 0.3
